Data published in patent EP2826473A1, “NOVEL USE OF PATCHOULOL” (Chengdu Huasun Group Inc., Ltd., priority 2012, dated 2013).
≈ marks a conversion by molar mass, not a printed value. Where two headings read alike, the source gives them in different places.

What was measured:
Streptococcus bovis = assay: in vitro bacteriostatic activity, agar dilution MIC; type: cell-based; conditions: Streptococcus equinus; Streptococcus bovis 12-3
Staphylococcus xylosus = assay: as above; type: cell-based
Proteus vulgaris = assay: as above; type: cell-based; conditions: Proteus vulgaris 12-1
Pseudomonas aeruginosa = assay: as above; type: cell-based; conditions: Pseudomonas aeruginosa12-1
[1] = system: Staphylococcus epidermidis MSSE; assay: as above; type: cell-based; conditions: Staphylococcus epidermidis, read-out: MIC
Staphylococcus aureus = assay: in vitro bacteriostatic activity, agar dilution MIC, quality control strains; type: cell-based; conditions: read-out: MIC
[2] = system: Methicillin-resistant Staphylococcus aureus ATCC 43300; assay: in vivo protection of model mice infected with methicillin-resistant Staphylococcus aureus; design: species or system KM mice; conditions: intraperitoneal injection once a day, within 14 days; for Survival number: 10 animals
Procedure: Tested strains' virulence assay: Methicillin-resistant Staphylococcus aureus was cultured in incubator at 37°C to reach exponential phase of growth, and then diluted with normal saline to obtain different gradient concentrations of bacterial liquid. Different concentrations of bacterial liquid were taken and mixed with equivalent 10% gastric mucin. Bacterial liquid was administrated to mice at 0.5 ml/20 g by intraperitoneal injection, and 5% gastric mucin was used as control. Under a premise of no control mice death, the death rate of mice within 14 days was recorded, and the minimum bacterial volumes leading to death of whole mice were measured, i.e. the minimum lethal dose (MLD) of bacterial liquid.
Pretesting of effective dose in vivo: Infection model mice infected by Methicillin-resistant Staphylococcus aureus were randomly divided into a few of groups (four mice per group), and a graded dose of each bacterial liquid was separately administrated to mice in each test group at one time per day. Moreover, administration of test drug was done one day ahead of schedule, and toxic substances were not eliminated until 0.5 h after administration on the second day. The death status of mice within 14 days was observed, to determine the dosage used in the formal experiment.
KM mice (grade SPF), half male and half female, weighing 18-22 g were randomly divided into […] groups with ten mice for each group, i.e. the group receiving vancomycin hydrochloride for injection; the groups receiving high, medium, and low doses of patchoulol; blank group; model group; and control group receiving gastric mucin. All of the mice were administrated by intraperitoneal injection once a day. The mice were administrated one day in advance and then attacked after 0.5h of administration on the second day, i.e. intraperitoneally injected with methicillin-resistant Staphylococcus aureus liquid containing 5% gastric mucin. Amongst, mice in the model group were given normal saline instead of test drug; mice in the blank group were not given drugs and attacked; mice in the gastric mucin control group were not given test drug, but only injected with 5% gastric mucin without bacteria.
The death status of mice within 14 days after injection of bacteria was observed, and its survival rate was recorded.

[3] = cited from earlier work
influenza virus H2N2 = conditions: intragastric administration of 5 mg/(kg·d); cited from earlier work
[4] = system: influenza virus A/FM/1/47 (H1N1); conditions: intragastric 40 and 80 mg/kg for successive 7 days; cited from earlier work
vomit response = conditions: chickens, 50-70 mg/kg; cited from earlier work

## C[C@H]1CC[C@@]2(O)C(C)(C)[C@@H]3CC[C@@]2(C)[C@H]1C3 (stereo in doubt) [PC, (1R,4S,4aS,6R,8aS)-octahydro-4,8a,9,9-tetramethyl-1,6-methanonaphthalen-1(2H)-ol]
Streptococcus bovis
  MIC: 50 µg/mL (≈ 225 µM)
Staphylococcus xylosus; Staphylococcus xylosus 12-1 (first line, r17), read-out: MIC
  MIC: 100 µg/mL (≈ 450 µM)
Staphylococcus xylosus; Staphylococcus xylosus 12-1 (second line, r18)
  MIC: 100 µg/mL (≈ 450 µM)
Proteus vulgaris
  MIC: 100 µg/mL (≈ 450 µM)
Pseudomonas aeruginosa
  MIC: 50 µg/mL (≈ 225 µM)
[1]; Staphylococcus epidermidis MSSE 10-43
  MIC: 1.5 µg/mL (≈ 6.75 µM)
[1]; Staphylococcus epidermidis MSSE 10-44
  MIC: 1.5 µg/mL (≈ 6.75 µM)
[1]; Staphylococcus epidermidis MSSE 12-11
  MIC: 32 µg/mL (≈ 144 µM)
[1]; Staphylococcus epidermidis MSSE 12-12
  MIC: 32 µg/mL (≈ 144 µM)
[1]; Staphylococcus epidermidis MSSE 12-13
  MIC: 64 µg/mL (≈ 288 µM)
[1]; Staphylococcus epidermidis MSSE 12-14
  MIC: 64 µg/mL (≈ 288 µM)
[1]; Staphylococcus epidermidis MSSE 12-15
  MIC: 64 µg/mL (≈ 288 µM)
[1]; Staphylococcus epidermidis MSSE 12-16
  MIC: 32 µg/mL (≈ 144 µM)
[1]; Staphylococcus epidermidis MSSE 12-17
  MIC: 32 µg/mL (≈ 144 µM)
[1]; Staphylococcus epidermidis MSSE 12-18
  MIC: 32 µg/mL (≈ 144 µM)
[1]; Staphylococcus epidermidis MSSE 12-19
  MIC: 32 µg/mL (≈ 144 µM)
[1]; Staphylococcus epidermidis MSSE 12-20
  MIC: 64 µg/mL (≈ 288 µM)
Staphylococcus aureus; ATCC25923, Staphylococcus aureus ATCC 25923
  MIC: 1.5 µg/mL (≈ 6.75 µM)
Staphylococcus aureus; ATCC29213, Staphylococcus aureus ATCC 29213
  MIC: 64 µg/mL (≈ 288 µM)
[2]; High dose 200 mg/kg
  Survival number: 10
  Survial rate (%): 100%
[2]; Low dose 50 mg/kg
  Survival number: 8
  Survial rate (%): 80%
[2]; Medium dose 100 mg/kg
  Survival number: 10
  Survial rate (%): 100%
[3]; in petroleum ether, ethanol and other commonly used organic solvents
  solubility: freely soluble
[3]; in water
  solubility: insoluble
Influenza virus H2N2
  protective effect on infected model mice: obvious protective effect
[4]
  survival rate of nonlethal and lethal model mice: obviously improve the survival rate
Vomit response
  vomit response induced by CuSO4: obviously inhibit
